For 29 molecules, IC50 results are on record in patent US20100204224A1, “AZACYCLIC COMPOUNDS AS INHIBITORS OF SENSORY NEURONE SPECIFIC SODIUM CHANNELS” (priority 2005, published 2010).

The term IC50 denotes the midpoint of a concentration-inhibition curve.

Some results are limits rather than exact numbers.

T1 sequence (Q9Y5Y9 whole entry): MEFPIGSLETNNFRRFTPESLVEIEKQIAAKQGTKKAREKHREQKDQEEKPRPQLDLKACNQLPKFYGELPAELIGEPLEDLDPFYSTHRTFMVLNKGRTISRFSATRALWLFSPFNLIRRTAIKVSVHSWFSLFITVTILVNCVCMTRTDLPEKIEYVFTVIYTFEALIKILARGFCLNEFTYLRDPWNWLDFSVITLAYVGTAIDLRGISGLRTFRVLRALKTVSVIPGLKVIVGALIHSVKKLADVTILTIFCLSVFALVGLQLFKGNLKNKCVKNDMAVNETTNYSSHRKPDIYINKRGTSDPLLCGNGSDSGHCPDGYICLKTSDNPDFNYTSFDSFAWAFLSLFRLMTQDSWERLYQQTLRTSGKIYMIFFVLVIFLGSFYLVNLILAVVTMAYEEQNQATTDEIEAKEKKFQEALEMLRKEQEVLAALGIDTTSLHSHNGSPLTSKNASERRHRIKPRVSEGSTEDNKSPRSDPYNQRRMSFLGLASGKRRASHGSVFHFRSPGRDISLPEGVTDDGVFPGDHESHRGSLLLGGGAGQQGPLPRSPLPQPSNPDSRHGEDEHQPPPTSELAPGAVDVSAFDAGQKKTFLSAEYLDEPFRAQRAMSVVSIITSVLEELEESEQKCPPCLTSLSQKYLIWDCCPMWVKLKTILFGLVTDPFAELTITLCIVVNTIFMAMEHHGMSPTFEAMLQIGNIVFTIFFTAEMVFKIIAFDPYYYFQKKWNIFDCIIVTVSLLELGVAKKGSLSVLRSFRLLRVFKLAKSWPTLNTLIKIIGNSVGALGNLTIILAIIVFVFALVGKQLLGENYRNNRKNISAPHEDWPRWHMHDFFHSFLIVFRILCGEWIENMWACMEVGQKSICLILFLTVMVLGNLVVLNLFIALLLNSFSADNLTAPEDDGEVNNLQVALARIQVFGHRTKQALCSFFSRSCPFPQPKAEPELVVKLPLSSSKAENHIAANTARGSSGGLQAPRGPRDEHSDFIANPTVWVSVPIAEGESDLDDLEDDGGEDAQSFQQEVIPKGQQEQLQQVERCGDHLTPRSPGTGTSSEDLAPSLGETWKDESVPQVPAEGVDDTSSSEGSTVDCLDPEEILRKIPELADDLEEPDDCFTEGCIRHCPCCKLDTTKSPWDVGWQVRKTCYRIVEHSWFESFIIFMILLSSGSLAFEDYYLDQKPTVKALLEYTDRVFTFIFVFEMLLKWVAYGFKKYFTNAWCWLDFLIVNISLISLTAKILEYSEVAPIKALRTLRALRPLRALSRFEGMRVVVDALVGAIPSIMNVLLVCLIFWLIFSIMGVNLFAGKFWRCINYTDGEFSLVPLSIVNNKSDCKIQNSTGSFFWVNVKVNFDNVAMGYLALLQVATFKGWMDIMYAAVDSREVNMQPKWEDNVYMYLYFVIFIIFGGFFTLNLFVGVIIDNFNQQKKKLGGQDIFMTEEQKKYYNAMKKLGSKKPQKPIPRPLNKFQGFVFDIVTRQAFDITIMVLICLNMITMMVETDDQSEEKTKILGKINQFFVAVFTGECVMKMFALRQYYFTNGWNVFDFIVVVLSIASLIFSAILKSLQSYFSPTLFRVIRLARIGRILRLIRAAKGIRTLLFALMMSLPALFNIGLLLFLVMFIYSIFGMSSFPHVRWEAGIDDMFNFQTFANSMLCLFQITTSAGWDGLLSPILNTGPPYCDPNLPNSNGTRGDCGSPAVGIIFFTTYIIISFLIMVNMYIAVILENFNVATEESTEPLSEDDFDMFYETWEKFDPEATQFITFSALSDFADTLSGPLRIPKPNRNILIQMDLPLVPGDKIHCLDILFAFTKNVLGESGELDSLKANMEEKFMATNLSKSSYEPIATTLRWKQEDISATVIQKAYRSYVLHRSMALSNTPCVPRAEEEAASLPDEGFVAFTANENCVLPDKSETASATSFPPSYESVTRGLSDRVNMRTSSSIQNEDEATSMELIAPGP

One experiment addresses T1, human Nav1.8 (hNav1.8) ion channel (Homo sapiens, UniProt Q9Y5Y9).
T1 construct: expressed in transfected cells
Description: Inhibition of human Nav1.8 stably expressed in SH-SY-5Y cells (membrane potential dye fluorescence assay). Conditions: SH-SY-5Y hNav1.8 cells; FLIPR membrane potential dye; 10 μM pyrethroid, 250 nM TTX; test concentration range 100 μM-0.05 μM; read-out: hNav1.8 IC50. Format: cell-based. The procedure: Inhibition of Human Nav1.8 stably expressed in SH-SY-5Y Cells
A SH-SY-5Y neuroblastoma cell line stably expressing the human Nav1.8 (hNav1.8) ion channel was constructed. This cell line has been used to develop a medium to high throughput assay for determining the ability of test compounds to inhibit membrane depolarisation mediated via the hNav1.8 channel.
SH-SY-5Y hNav1.8 are grown in adherent monolayer culture using 50:50 Ham's F-12/EMEM tissue culture medium supplemented with 15% (v/v) foetal bovine serum; 2 mM L-glutamine, 1% NEAR and 600 μg·ml^−1 Geneticin sulphate. Cells are removed from the tissue culture flask using trypsin/EDTA and re-plated into black walled, clear bottom 96-well assay plates at 50,000 cells·well^−1 24 hours prior to assay.
On the day of assay the cell assay plates are washed to remove cell culture medium using a sodium free assay buffer (145 mM tetramethyl ammonium chloride; 2 mM calcium chloride; 0.8 mM magnesium chloride hexahydrate; 10 mM HEPES; 10 mM glucose; 5 mM potassium chloride, pH 7.4). Fluorescent membrane potential dye solution (FLIPR™ membrane potential dye, Molecular Devices Corporation), containing 10 μM of a pyrethroid to prevent channel inactivation and 250 nM tetrodotoxin (TTX) to reduce interference from TTX-sensitive sodium channels present in the cell line. Test compound, initially dissolved in dimethyl sulfoxide but further diluted in sodium free buffer, is added to achieve the final test concentration range of 100 μM-0.05 μM.
Cell plates are incubated for 30 minutes at room temperature to allow equilibration of dye and test compound. Plates are then transferred to a fluorescence plate reader for fluorescence measurement using an excitation wavelength of 530 nm whilst measuring fluorescence emission at 565 nm. Baseline fluorescence levels are first determined before the addition of a sodium containing buffer (220 mM sodium chloride; 2 mM calcium chloride; 0.8 mM magnesium chloride hexahydrate; 10 mM HEPES; 10 mM glucose; 5 mM potassium chloride. pH 7.4) to cause membrane depolarisation in those cells where channel block has not been effected (final sodium concentration=72.5 mM). Membrane depolarisation is registered by an increase in fluorescence emission at 565 nm.
The change in fluorescence seen in each test well upon the addition of sodium containing buffer is calculated relative to the baseline fluorescence for that well. This figure is then used for calculating the IC50 for each test compound.
Take `CC(c1c(F)cccc1F)N1CC2CC1CN2C(=O)Nc1ccc(Oc2ccccc2)cc1` (centres unmarked) [Example 10, 5-[1-(2,6-Difluoro-phenyl)-ethyl]-2,5-diaza-bicyclo[2.2.1]heptane-2-carboxylic acid (4-phenoxy-phenyl)-amide]: the half-maximal inhibitory concentration (IC50) is 1100 nM.

As for `CC(c1c(F)cccc1F)N1CC2CC1CN2C(=O)Nc1ccc(C(F)(F)F)cc1` (centres unmarked) [Example 13, 5-[1-(2,6-Difluoro-phenyl)-ethyl]-2,5-diaza-bicyclo[2.2.1]heptane-2-carboxylic acid (4-trifluoromethyl-phenyl)-amide], the IC50 came out at 6360 nM.

With `Cc1ccsc1C(C)N1CC2CC1CN2C(=O)Nc1ccc(Oc2ccccc2)cc1` (centres unmarked) [Example 14, 5-[1-(3-Methyl-thiophen-2-yl)-ethyl]-2,5-diaza-bicyclo[2.2.1]heptane-2-carboxylic acid (4-phenoxy-phenyl)-amide], the IC50 was 900 nM.

`Cc1ccsc1C(C)N1CC2CC1CN2C(=O)Nc1ccc(C(F)(F)F)cc1` (centres unmarked) [Example 15, 5-[1-(3-Methyl-thiophen-2-yl)-ethyl]-2,5-diaza-bicyclo[2.2.1]heptane-2-carboxylic acid (4-trifluoromethyl-phenyl)-amide]: the IC50 came out at 3040 nM.

`CCOCCOCCOc1ccc(NC(=O)N2CC3CC2CN3C(C)c2ccccc2C)cc1` (centres unmarked) [Example 16, 5-(1-o-Tolyl-ethyl)-2,5-diaza-bicyclo[2.2.1]heptane-2-carboxylic acid {4-[2-(2-ethoxy-ethoxy)-ethoxy]-phenyl}-amide]: the IC50 turned out to be 25600 nM.

For the molecule `CCOCCOc1ccc(NC(=O)N2CC3CC2CN3C(C)c2ccccc2C)cc1` (centres unmarked) [Example 17, 5-(1-o-Tolyl-ethyl)-2,5-diaza-bicyclo[2.2.1]heptane-2-carboxylic acid [4-(2-ethoxy-ethoxy)-phenyl]-amide], the IC50 stood at 28000 nM.

For the molecule `COCCOCCOc1ccc(NC(=O)N2CC3CC2CN3C(C)c2ccccc2C)cc1` (centres unmarked) [Example 18, 5-(1-o-Tolyl-ethyl)-2,5-diaza-bicyclo[2.2.1]heptane-2-carboxylic acid {4-[2-(2-methoxy-ethoxy)-ethoxy]-phenyl}-amide], the IC50 was at least 30000 nM.

Regarding `COCCOc1ccc(NC(=O)N2CC3CC2CN3C(C)c2ccccc2C)cc1` (centres unmarked) [Example 19, 5-(1-o-Tolyl-ethyl)-2,5-diaza-bicyclo[2.2.1]heptane-2-carboxylic acid [4-(2-methoxy-ethoxy)-phenyl]-amide], the IC50 was at least 30000 nM.

Turning to `C=CCOc1ccc(NC(=O)N2CC3CC2CN3C(C)c2ccccc2C)cc1` (centres unmarked) [Example 20, 5-(1-o-Tolyl-ethyl)-2,5-diaza-bicyclo[2.2.1]heptane-2-carboxylic acid (4-allyloxy-phenyl)-amide], the IC50 is 3420 nM.

For the molecule `Cc1ccccc1C(C)N1CC2CC1CN2C(=O)Nc1ccc(OCCN(C)C)cc1` (centres unmarked) [Example 21, 5-(1-o-Tolyl-ethyl)-2,5-diaza-bicyclo[2.2.1]heptane-2-carboxylic acid [4-(2-dimethylamino-ethoxy)-phenyl]-amide], the IC50 was 28300 nM.

Turning to `Cc1ccccc1C(C)N1CC2CC1CN2C(=O)Nc1ccc(OC2CCOCC2)cc1` (centres unmarked) [Example 22, 5-(1-o-Tolyl-ethyl)-2,5-diaza-bicyclo[2.2.1]heptane-2-carboxylic acid [4-(tetrahydro-pyran-4-yloxy)-phenyl]-amide], the IC50 came to 18900 nM.

On to `Cc1ccccc1C(C)N1CC2CC1CN2C(=O)Nc1ccc(OCCN2CCCC2=O)cc1` (centres unmarked) [Example 23, 5-(1-o-Tolyl-ethyl)-2,5-diaza-bicyclo[2.2.1]heptane-2-carboxylic acid {4-[2-(2-oxo-pyrrolidin-1-yl)-ethoxy]-phenyl}-amide], for which the IC50 is at least 30000 nM.

For the molecule `Cc1ccccc1C(C)N1CC2CC1CN2C(=O)Nc1ccc(OC2CCCC2)cc1` (centres unmarked) [Example 24, 5-(1-o-Tolyl-ethyl)-2,5-diaza-bicyclo[2.2.1]heptane-2-carboxylic acid (4-cyclopentyloxy-phenyl)-amide], the IC50 amounted to 890 nM.

On to `Cc1ccccc1C(C)N1CC2CC1CN2C(=O)Nc1ccc(OCC2CCCCO2)cc1` (centres unmarked) [Example 25, 5-(1-o-Tolyl-ethyl)-2,5-diaza-bicyclo[2.2.1]heptane-2-carboxylic acid [4-(tetrahydro-pyran-2-ylmethoxy)-phenyl]-amide], for which the IC50 was determined as 5380 nM.

As for `Cc1ccccc1C(C)N1CC2CC1CN2C(=O)Nc1ccc(OCC2CCCO2)cc1` (centres unmarked) [Example 26, 5-(1-o-Tolyl-ethyl)-2,5-diaza-bicyclo[2.2.1]heptane-2-carboxylic acid [4-(tetrahydro-furan-2-ylmethoxy)-phenyl]-amide], the IC50 came to 16700 nM.

As to `COCCCOc1ccc(NC(=O)N2CC3CC2CN3C(C)c2ccccc2C)cc1` (centres unmarked) [Example 27, 5-(1-o-Tolyl-ethyl)-2,5-diaza-bicyclo[2.2.1]heptane-2-carboxylic acid [4-(3-methoxy-propoxy)-phenyl]-amide], the half-inhibitory concentration (IC50) is 8480 nM.

With `C=CCOC(=O)NCCOc1ccc(NC(=O)N2CC3CC2CN3C(C)c2ccccc2C)cc1` (centres unmarked) [Example 28, [2-(4-{[5-(1-o-Tolyl-ethyl)-2,5-diaza-bicyclo[2.2.1]heptane-2-carbonyl]-amino}-phenoxy)-ethyl]-carbamic acid allyl ester], the IC50 is 4890 nM.

Consider `Cc1ccccc1C(C)N1CC2CC1CN2C(=O)Nc1ccc(Oc2ccccc2)cc1` (centres unmarked) [Example 30, 5-(1-o-Tolyl-ethyl)-2,5-diaza-bicyclo[2.2.1]heptane-2-carboxylic acid (4-phenoxy-phenyl)-amide], for which the IC50 was 320 nM.

As for `Cc1ccccc1C(C)N1CC2CC1CN2C(=O)Nc1ccc(OCc2ccccc2)cc1` (centres unmarked) [Example 31, 5-(1-o-Tolyl-ethyl)-2,5-diaza-bicyclo[2.2.1]heptane-2-carboxylic acid (4-benzyloxy-phenyl)-amide], the IC50 was 600 nM.

As to `Cc1ccccc1C(C)N1CC2CC1CN2C(=O)Nc1ccc(Oc2ccccc2)cc1` (centres unmarked) [Example 32, 5-(1-o-Tolyl-ethyl)-2,5-diaza-bicyclo[2.2.1]heptane-2-carboxylic acid (4-phenoxy-phenyl)-amide], the 50% inhibitory concentration (IC50) is 710 nM.

With `Cc1ccccc1C(C)N1CC2CC1CN2C(=O)Nc1ccc(OCc2ccccc2)cc1` (centres unmarked) [Example 33, 5-(1-o-Tolyl-ethyl)-2,5-diaza-bicyclo[2.2.1]heptane-2-carboxylic acid (4-benzyloxy-phenyl)-amide], the IC50 is 490 nM.

As for `Cc1ccccc1C(C)N1CC2CC1CN2C(=O)Nc1ccc(Cc2ccccc2)cc1` (centres unmarked) [Example 34, 5-(1-o-Tolyl-ethyl)-2,5-diaza-bicyclo[2.2.1]heptane-2-carboxylic acid (4-benzyl-phenyl)-amide], the IC50 amounted to 640 nM.

Regarding `Cc1ccccc1C(C)N1CC2CC1CN2C(=O)Nc1ccc(Cc2ccccc2)cc1` (centres unmarked) [Example 35, 5-(1-o-Tolyl-ethyl)-2,5-diaza-bicyclo[2.2.1]heptane-2-carboxylic acid (4-benzyl-phenyl)-amide], the IC50 stood at 590 nM.

`Cc1ccccc1C(C)N1CC2CC1CN2C(=O)Nc1ccc(-c2ccccc2)cc1` (centres unmarked) [Example 38, 5-(1-o-Tolyl-ethyl)-2,5-diaza-bicyclo[2.2.1]heptane-2-carboxylic acid biphenyl-4-ylamide]: the IC50 is 1440 nM.

As to `Cc1ccccc1C(C)N1CC2CC1CN2C(=O)Nc1ccc(-c2ccccc2)cc1` (centres unmarked) [Example 39, 5-(1-o-Tolyl-ethyl)-2,5-diaza-bicyclo[2.2.1]heptane-2-carboxylic acid biphenyl-4-ylamide], the IC50 was 1060 nM.

Turning to `Cc1ccccc1C(C)N1CC2CC1CN2C(=O)Nc1ccc(OC2CCN(Cc3ccccc3)CC2)cc1` (centres unmarked) [Example 40, 5-(1-o-Tolyl-ethyl)-2,5-diaza-bicyclo[2.2.1]heptane-2-carboxylic acid [4-(1-benzyl-piperidin-4-yloxy)-phenyl]-amide], the IC50 is 2010 nM.

For the molecule `Cc1ccccc1C(C)N1CC2CC1CN2C(=O)Nc1ccc(OCCN2CCCC2)cc1` (centres unmarked) [Example 41, 5-(1-o-Tolyl-ethyl)-2,5-diaza-bicyclo[2.2.1]heptane-2-carboxylic acid [4-(2-pyrrolidin-1-yl-ethoxy)-phenyl]-amide], the half-inhibitory concentration (IC50) was at least 30000 nM.

The experiment is the same for the next values; noted with them: hNav1.8 IC50, SH-SY-5Y hNav1.8 cells; FLIPR membrane potential dye; 10 μM pyrethroid, 250 nM TTX; test concentration range 100 μM-0.05 μM.
`Cc1ccccc1C(C)N1CC2CC1CN2C(=O)Cc1ccc(Oc2ccccc2)cc1` (centres unmarked) [Example 36, 2-(4-Phenoxy-phenyl)-1-[5-(1-o-tolyl-ethyl)-2,5-diaza-bicyclo[2.2.1]hept-2-yl]-ethanone] registered an IC50 of 810 nM.

Molecule `Cc1ccccc1C(C)N1CC2CC1CN2C(=O)Cc1ccc(Oc2ccccc2)cc1` (centres unmarked) [Example 37, 2-(4-Phenoxy-phenyl)-1-[5-(1-o-tolyl-ethyl)-2,5-diaza-bicyclo[2.2.1]hept-2-yl]-ethanone] gave an IC50 of 960 nM.
